Data: PubChem BioAssay AID463203 (Broad Institute, 2010)
Active and inactive are the calls of the source.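 How the source made its calls: active means more than half of replicate measurements showing over 20% loss of kinase signal relative to plate controls; inconclusive means some but at most half of replicates over 20% loss; inactive means no replicate over 20% signal loss.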

Each molecule was assayed against Glycogen synthase kinase-3 alpha (Homo sapiens) (UniProt P49840) (assay: concentration-response blocking of human GSK3A – biochemical, luminescence, cell-free homogeneous, retest, dose response (AID 463203)). Conditions: GSK-3 alpha enzyme, ADP-Glo luminescence, 60 min.
Sequence of Glycogen synthase kinase-3 alpha (Homo sapiens) (P49840 whole entry, looked up): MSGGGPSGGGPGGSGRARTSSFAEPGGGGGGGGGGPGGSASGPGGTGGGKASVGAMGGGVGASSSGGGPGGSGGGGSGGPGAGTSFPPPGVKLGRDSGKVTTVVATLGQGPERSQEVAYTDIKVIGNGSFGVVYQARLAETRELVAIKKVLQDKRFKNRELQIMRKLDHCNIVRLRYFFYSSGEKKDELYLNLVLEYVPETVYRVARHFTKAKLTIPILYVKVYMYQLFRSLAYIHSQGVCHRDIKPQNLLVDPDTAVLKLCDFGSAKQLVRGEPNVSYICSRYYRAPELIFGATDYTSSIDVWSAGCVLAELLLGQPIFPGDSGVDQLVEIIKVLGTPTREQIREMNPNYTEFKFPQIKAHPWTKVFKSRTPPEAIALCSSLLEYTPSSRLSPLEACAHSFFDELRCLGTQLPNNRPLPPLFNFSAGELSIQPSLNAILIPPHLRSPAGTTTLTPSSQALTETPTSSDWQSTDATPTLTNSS
`COc1ccc(/C=C/c2nc(N)nc(-c3ccccc3O)n2)cc1` was tested, and the AC50 was > 30 µM (inactive). In the case of `Cc1ccccc1C(=O)O/N=C(\N)c1cccc([N+](=O)[O-])c1`, the AC50 was > 30 µM (inactive). In the case of `COc1ccccc1Nc1nc(NCCCCO)nc(N2CCCC2)n1`, the AC50 was > 30 µM (inactive). `O=C1CCCC2=C1C(c1ccc(Br)cc1)c1c([nH]c(=S)[nH]c1=O)N2` (stereo unspecified) was tested, and the AC50 was > 30 µM (inactive). `CC(C)c1c(C(=O)N/N=C/c2cccnc2)nnn1-c1nonc1N` was tested, and the AC50 was > 30 µM (inactive). In the case of `O=[N+]([O-])c1ccc(O)c(/C=N/n2c(-c3ccccc3)n[nH]c2=S)c1`, the AC50 was 26.3 µM. For `O=C(O)c1cccc2c1C(=O)c1ccccc1C2=O`, the AC50 was > 30 µM (inactive). With `CCCCCCCOC(=O)C1=C(C)Nc2ncnn2C1c1cccs1` (stereo unspecified) the AC50 was > 30 µM (inactive). `COc1ccccc1N=c1oc2cc(O)ccc2cc1C(=O)NCC1CCCO1` (stereo unspecified) was tested, and the AC50 was > 30 µM (inactive). `Cc1ccnc(SCC(=O)Nc2sc3c(c2C#N)CCCC3)n1` was tested, and the AC50 was > 30 µM (inactive). For `Cc1ccc2nc(C3CCCCC3)[nH]c2c1`, the AC50 was > 30 µM (inactive). With `CCC(C)Sc1nc2c(c(=O)[nH]1)C(c1cccs1)C1=C(CCCC1=O)N2` (stereo unspecified) the AC50 was > 30 µM (inactive). With `CCOC(=O)c1c(NC(=O)Cc2cccs2)sc2c1CCCC2` the AC50 was > 30 µM (inactive). In the case of `NS(=O)(=O)c1cccc(NC(=O)CSc2nnc(-c3ccccc3)o2)c1`, the AC50 was > 30 µM (inactive). In the case of `O=C(OCC1OC2OC3(CCCCC3)OC2C2OC3(CCCCC3)OC12)c1ccccc1` (stereo unspecified), the AC50 was > 30 µM (inactive). In the case of `CC(C)Nc1nc(NC(C)C)nc(C(=O)OCCO)n1`, the AC50 was > 30 µM (inactive). With `N#Cc1c(C#N)c(-c2ccccc2)n(-c2ccc(C(=O)O)cc2)c1N` the AC50 was 14.2 µM. With `COc1ccc(C(=O)c2ccccc2Cl)cc1` the AC50 was > 30 µM (inactive). In the case of `Cc1cccc(Nc2ncccc2C(=O)O)c1C`, the AC50 was > 30 µM (inactive). Work on `O=C(COC(=O)CCc1ccc(S(=O)(=O)N2CCOCC2)cc1)Nc1ccc(Cl)cn1` yielded an AC50 of 28.4 µM. `COC(=O)[C@@H](NC(=O)NCc1ccccc1Cl)C(C)C` was tested, and the AC50 was > 30 µM (inactive). Work on `COC(=O)c1sccc1-c1ccc(C(N)=O)o1` yielded an AC50 of 26.8 µM. With `Cc1ccc(S(=O)(=O)N(CC(O)CN2CCCC2)c2ccccc2)cc1` (stereo unspecified) the AC50 was > 30 µM (inactive). `COc1ccc2ccccc2c1/C=N/NC(=O)c1sc(N)c(C#N)c1C` gave an AC50 of 25.3 µM. For `CC(C(=O)Nc1nccs1)c1ccc([N+](=O)[O-])cc1` (stereo unspecified), the AC50 was 20.5 µM. For `CCc1ccc(C2CC(c3ccccc3Cl)Nc3nc(N)nn32)cc1` (stereo unspecified), the AC50 was > 30 µM (inactive). With `CC(C)(C)NC(=O)/C(=C/c1ccccc1F)NC(=O)c1ccc([N+](=O)[O-])cc1` the AC50 was > 30 µM (inactive). With `CC1(C)CC(NC(=O)COc2ccccc2Cl)CC(C)(C)N1` the AC50 was > 30 µM (inactive). In the case of `CC(=O)Nc1ccc(NC(=O)CSc2nc3[nH]ncc3c(=O)n2-c2ccccc2)cc1`, the AC50 was > 30 µM (inactive). With `COc1ccc(CC(=O)Oc2ccccc2C)cc1` the AC50 was > 30 µM (inactive). `O=C1Nc2ccccc2/C1=C/c1cnc(-c2ccccc2)[nH]1` was tested, and the AC50 was > 30 µM (inactive). `O=C1c2cnc3ncnn3c2CC2c3ccccc3CCN12` (stereo unspecified) was tested, and the AC50 was > 30 µM (inactive). For `CCOC(=O)c1cc(C)[nH]c1C`, the AC50 was > 30 µM (inactive). With `CCC(=O)NC(=S)Nc1cccc(C(C)=O)c1` the AC50 was > 30 µM (inactive). For `COc1ccccc1CC(=O)N1CCOCC1`, the AC50 was > 30 µM (inactive). In the case of `O=C1c2cccc(O)c2C(=O)c2c(O)cc(CO)cc21`, the AC50 was > 30 µM (inactive). `O=C(CCCN1C(=O)C2CCCCN2C1=O)N1CCN(c2ccc([N+](=O)[O-])cc2)CC1` (stereo unspecified) was tested, and the AC50 was > 30 µM (inactive). For `CCCc1cc(=O)[nH]c(SCC(=O)Nc2sc3c(c2C(N)=O)CCCC3)n1`, the AC50 was > 30 µM (inactive). For `C=CCc1cccc(/C=N/n2c(C)nnc2C)c1O`, the AC50 was > 30 µM (inactive). `COc1ccc(-c2cc(C(F)(F)F)nc(SCC(=O)NCc3cccs3)n2)cc1` was tested, and the AC50 was > 30 µM (inactive). For `CC(=O)c1sc(NC(=O)CN2C(=O)NC3(CCCC3)C2=O)nc1-c1ccccc1`, the AC50 was 20.7 µM. With `C[C@@H](NC(=O)c1[nH]cnc1C(=O)Nc1ccon1)c1ccccc1` the AC50 was 11.6 µM. With `CCOc1cc2c(C#N)c(N3CCCC3)nc(N)c2c(N)n1` the AC50 was > 30 µM (inactive). With `N/C(=N\OC(=O)c1ccc2ccccc2c1)c1cccc([N+](=O)[O-])c1` the AC50 was > 30 µM (inactive). For `Cc1c(CCC(=O)O)c(=O)oc2cc(O)ccc12`, the AC50 was > 30 µM (inactive). In the case of `CC(C)N=C(NC#N)SCc1ccc(Br)cc1`, the AC50 was > 30 µM (inactive). With `CN(C(=O)Oc1ccc([N+](=O)[O-])cc1)c1ccccc1` the AC50 was > 30 µM (inactive). With `O=[N+]([O-])c1ccc(N/N=C/c2ccc(OCc3cccc4ccccc34)cc2)nc1` the AC50 was > 30 µM (inactive). For `Cn1c(=O)c2[nH]c(CNc3ccc(C(=O)O)cc3)nc2n(C)c1=O`, the AC50 was > 30 µM (inactive). With `Cc1ccc(S(=O)(=O)N2C(=O)/C(=C3\SC(=S)NC3=O)c3ccccc32)cc1` the AC50 was > 30 µM (inactive). `Cc1ccc2c(c1)Oc1ccc(NC(=O)CCl)cc1C(=O)N2` was tested, and the AC50 was > 30 µM (inactive). In the case of `CSCCC1NC(=S)N(Cc2ccccc2)C1=O` (stereo unspecified), the AC50 was > 30 µM (inactive). For `CCC(CO)Nc1ncc([N+](=O)[O-])cc1C#N` (stereo unspecified), the AC50 was > 30 µM (inactive). For `COC(=O)Nc1nnc(COc2ccccc2)s1`, the AC50 was > 30 µM (inactive). `O=c1[nH]c(CN2CCN(CCO)CC2)nc2ccccc12` was tested, and the AC50 was > 30 µM (inactive). For `Nc1n[nH]c2cc(=O)n(-c3ccc(Cl)cc3)nc12`, the AC50 was 18.9 µM. For `O=[N+]([O-])c1cccnc1NCCc1ccccc1`, the AC50 was > 30 µM (inactive). In the case of `N#Cc1c(Nc2ccccc2)c(C=O)c[nH]c1=O`, the AC50 was > 30 µM (inactive). With `N#CC1=C2SCN(Cc3ccco3)CN2C(=O)CC1c1ccccc1F` (stereo unspecified) the AC50 was > 30 µM (inactive). With `CC(C)(C)NCC(O)COc1ccccc1C(C)(C)C` (stereo unspecified) the AC50 was > 30 µM (inactive). With `CC(=C/c1ccccc1)/C=N/NC(=O)c1nnn(-c2nonc2N)c1CN1CCC(C)CC1` the AC50 was > 30 µM (inactive). With `CCCCCCCCCCOC(=O)Cn1c(COc2ccc(Cl)cc2)[n+](C)c2ccccc21` the AC50 was > 30 µM (inactive). Work on `S=C(NCc1ccc2c(c1)OCO2)NCc1ccc2c(c1)OCO2` yielded an AC50 of 25.5 µM. For `O=c1[nH]c(=S)n(Cc2ccc(F)cc2)c(O)c1C=NCCCn1ccnc1`, the AC50 was > 30 µM (inactive). With `OCC1OC(n2cnc3c(NCCc4ccccc4)ncnc32)C(O)C1O` (stereo unspecified) the AC50 was > 30 µM (inactive). `Nc1nc(N)nc(-c2cc(F)ccc2O)n1` showed an AC50 of 18.9 µM. `COc1ccc(C=O)cc1OS(=O)(=O)c1ccccc1[N+](=O)[O-]` was tested, and the AC50 was > 30 µM (inactive). For `Cc1nc2ncnn2c(C)c1Cc1cccc(F)c1`, the AC50 was > 30 µM (inactive). With `Cc1ccc(/C=N/NC(=O)c2nnn(-c3nonc3N)c2CN(C)C)o1` the AC50 was > 30 µM (inactive). `C[C@@H]1O[C@@H](Oc2c(-c3ccc(O)c(O)c3)oc3cc(O)cc(O)c3c2=O)[C@H](O)[C@H](O)[C@H]1O` was tested, and the AC50 was 29.8 µM. In the case of `CC(C)(C)CNc1cc(N2CCCC2)ccc1[N+](=O)[O-]`, the AC50 was > 30 µM (inactive). In the case of `O=C(NC1CCCC1)c1cccc(NC(=O)c2ccco2)c1`, the AC50 was > 30 µM (inactive). In the case of `CCN1CCN(c2c(Cl)cccc2NC(=O)c2cccs2)CC1`, the AC50 was > 30 µM (inactive). `CCOc1cccc(-c2c(C(=O)N/N=C/c3cccnc3)nnn2-c2nonc2N)c1` showed an AC50 of 4.67 µM. For `CC1(C)CC(=O)c2cnc(NCC3CCCO3)nc2C1` (stereo unspecified), the AC50 was > 30 µM (inactive). Work on `O=C(NCCc1csc(-c2cccnc2)n1)c1ccc(Br)o1` yielded an AC50 of 17.8 µM.
